Test results as given in article PMC5319851 (Bioorganic & medicinal chemistry, 2016).

Key:
[1] = target: RpMetAP1 (Rickettsia prowazekii, UniProt Q9ZCD3)
[2] = tested on: primary pulmonary vascular endothelial cells (ECs)
[3] = tested on: HsMetAP2; settings: read-out: HsMetAP2 IC50; cited from earlier work
[4] = tested on: HsMetAP1; settings: read-out: HsMetAP1 IC50; cited from earlier work

Sequence of RpMetAP1 (Q9ZCD3 whole entry, looked up): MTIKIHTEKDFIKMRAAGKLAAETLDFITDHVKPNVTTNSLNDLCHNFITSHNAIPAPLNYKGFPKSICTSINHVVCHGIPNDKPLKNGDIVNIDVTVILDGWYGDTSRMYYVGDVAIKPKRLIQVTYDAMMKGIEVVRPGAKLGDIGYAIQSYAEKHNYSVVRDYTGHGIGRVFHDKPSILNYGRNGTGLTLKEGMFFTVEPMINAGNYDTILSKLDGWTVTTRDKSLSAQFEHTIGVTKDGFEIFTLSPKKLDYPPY

## Cc1ccc(-c2ccc(C(=O)O)o2)cc1 [Compound 5]
[1]
  Hill Slope (furoic acid species): 1.0 ± 0.1

## Cc1cccc(-c2ccc(C(=O)O)o2)c1 [Compound 9]
[1]
  Hill Slope (furoic acid species): 1.0 ± 0.1

## Oc1ccc(Cl)c2cccnc12 [Compound 22, 5-chloro-8-quinolinol]
[1]
  Hill Slope (quinolinol species): 1.9 ± 0.2

## Nc1nnc(SCc2ccc(Cl)cc2)[nH]1 [Compound 16]
[2]
  Effect of compound alone on appearance of EC monolayers: no overt effect on the appearance of the monolayers
  Host EC metabolism (WST-1) of uninfected ECs: stimulated EC metabolism

## O=[N+]([O-])c1ccc(O)c2ncccc12 [Compound 23, nitroxoline, reference compound]
[1]
  Hill Slope (quinolinol species): 1.7 ± 0.5

## O=C(O)c1ccc(-c2ccc(Br)cc2)o1 [Compound 7]
[1]
  Hill Slope (furoic acid species): 1.0 ± 0.1

## Nc1n[nH]c(SCc2ccccc2)n1 [Compound 12]
[2]
  Host EC metabolism (WST-1) of uninfected ECs: stimulated EC metabolism

## Nc1n[nH]c(SCc2ccccc2Cl)n1 [Compound 15]
[2]
  Host EC metabolism (WST-1) of uninfected ECs: stimulated EC metabolism

## O=C(O)c1ccc(-c2ccccc2C(F)(F)F)o1 [Compound 6]
[1]
  Hill Slope (furoic acid species): 2.1 ± 0.1

## CC(C)(C)c1ccc(CSc2nnc(N)[nH]2)cc1 [Compound 19]
[3]
  IC50: > 15 µM
[4]
  IC50: > 15 µM

## O=C(O)c1ccc(-c2cccc(C(F)(F)F)c2)o1 [Compound 3]
[1]
  Hill Slope (furoic acid species): 1.0 ± 0.1

## Cc1ccccc1-c1ccc(C(=O)O)o1 [Compound 8]
[1]
  Hill Slope (furoic acid species): 1.3 ± 0.1

## O=C(O)c1ccc(-c2cccc([N+](=O)[O-])c2)o1 [Compound 2]
[1]
  Hill Slope (furoic acid species): 1.0 ± 0.1

## Cc1ccc2cccc(O)c2n1 [Compound 20, 2-methyl-8-quinolinol]
[3]
  IC50: 2.03 ± 0.3 µM
[1]
  Hill Slope (quinolinol species): 1.1 ± 0.1
[4]
  IC50: > 15 µM

## Oc1c(CN2CCOCC2)cc(Cl)c2cccnc12 [Compound 24]
[1]
  Hill Slope (quinolinol species): 1.5 ± 0.1

## O=C(O)c1ccc(-c2ccccc2)o1 [Compound 4, 5-phenyl-2-furoic acid]
[1]
  Hill Slope (furoic acid species): 1.0 ± 0.1

## O=[N+]([O-])c1cc(CN2CCOCC2)c(O)c2ncccc12 [Compound 26]
[1]
  Hill Slope (quinolinol species): 1.0 ± 0.1
